These results are taken from US7153685B2 (The Board of Trustees of the University of Illinois, priority 2002, dated 2006).

Test [1] deals with ATL2/pS2 ERE-LUC reporter in HepG2 cells. Nature of the test: MOX-dependent transactivation by wild-type and mutant ERs, transient transfection, luciferase reporter. It is filed as cell-based, human. To be noted: 10 nM MOX.
A further test relates to cERE probe. Kind of test: EMSA (gel mobility shift), ER binding to cERE probe. To be noted: CHO-S extracts. On the procedure:
(§1) CHO—S cells (Life-Technologies; Grand Island, N.Y.) were transfected using Lipofectamine 2000 (Life-Technologies). Transfection was performed according to the manufacturer's instructions, except cells were grown in 6-well plates coated with 1 ml of 0.1 mg/mL polylysine for 24 hours at 37° C. prior to transfection. One μg of CMV-hERα and 3 μg of pTZ18U carrier DNA were used for each well; DNA:Lipofectamine 2000 was 1:3. 17β-estradiol was added to a final concentration of 10 nM 1 hour before harvest. Whole cell extracts were prepared as described (Zhang et al., 1996) with a modified extraction buffer (50 m-M Tris-HCl, pH 7.5, 1.5 mM EDTA, 10 mM Na2MoO4, 0.5 M NaCl, 10% glycerol, 0.5 mM β-mercaptoethanol, 50 μg/ml leupeptin, 1 μg/ml pepstatin and 5 μg/ml aprotinin).
(§2) Gel mobility shift assays were performed essentially as described [Zhang, 1999 #38]. Each 20 μl reaction contained 50 mM KCl, 15 mM Tris-HCl (pH 7.9), 4 mM dithiothreitol, 0.2 mM EDTA, 3 μg of poly(dIdC) and 10% glycerol; bovine serum albumin (BSA) was added to each sample for a total of 10 μg of protein. Free probe and protein-DNA complexes were quantitated using a phosphor imager and ImageQuant 5.0 (Molecular Dynamics, Inc., Sunnyvale, Calif.). The sequence of one DNA strand of each of the three probes (SEQ ID NOS:61–63) used for the gel mobility shift assays are presented in Table 31. The ERE or PAL sequences are underlined.
To compare binding of wild type hERα and the ER mutants to the EREs, protein titrations were performed. Increasing amounts of extracts containing equivalent levels of wild-type ER or ER mutants were incubated with the cERE. The ER:ERE complexes were then analyzed by EMSA. […] The mutants required 1.5–2.4-fold more extract to bind 50% of the cERE probe than wild-type ER. […] Even at the highest level of extract (8 μg), wild-type ER shifted only ˜15% of the pS2 probe.
FIG. 1 (Legend) A. Panel (i), Western blots of normalized whole cell extracts of wild type hERα and mutants from transfected CHO-S cells. Lane 1–13: mutants 4, 2, 57.1, 50.1, 15.3, wild type ER, 7.2, 6.2, 4.3, 3.1, 2.1, wild type, and 3M, respectively. Panel (ii), The three ERE sequences used in these studies. The nucleotides that differ from those in the consensus ERE (cERE) are underlined. Nucleotides in lower case lettering are less well conserved or not conserved in EREs. […] The data were calculated by PhosphorImager analysis. (B) The labeled cERE probe was incubated with 0.5, 1.0, 2.0 and 4.0 μg of whole cell extracts of wild type hERα, or extracts containing the mutant ERs normalized to contain the same amount of ER as the wild-type ER extract at each point. (C) Gel shift assays using the labeled pS2 ERE probes and increasing amounts (1.0, 2.0, 4.0 and 8.0 μg) of the whole cell extracts containing wild-type ER and each of the ER mutants. (D) Gel shift assays using the labeled pS2 palindrome ERE probe. The ER extract contained 2.0, 4.0 and 8.0 μg of whole cell extract (panel (i)), and 15 μg (panel (ii)). Lanes 1–7 (panel (ii)) represent wild type hERα, and mutants 3M, 3.1, 4.3, 6.2, 2 and 4, respectively. D (iii) contains a graph of the percentage of the labeled pS2 PAL probe shifted calculated by PhosphorImager analysis of the data in D(i) and D(ii).
On the technique in general: A gel shift assay detects complexes by their altered migration in electrophoresis.

In test [2] the test system is putative ERE in the Bcl2 gene. Nature of the test: EMSA, ER binding to putative ERE in the Bcl2 gene. Particulars: summary statement. Here is the method: as §2
It therefore seemed possible that binding of wild-type ER to the pS2 ERE is based on strong binding of one monomer of the ER dimer to the cERE half site (aGGTCA; SEQ ID NO: 65) and weak non-specific interaction of the other ER monomer with the sequence at the other half site. To test this possibility, binding of wild-type and the ER mutants to a putative ERE in the Bcl2 gene was examined. Like pS2, Bcl2 contains a cERE half site, but also contains a second, different half site that deviates from the consensus sequence by one nucleotide.

In test [3] the test system is ER3M-VP16 fusion proteins (N-79, N-129, C-79, C-129). Kind of test: ATL8/PAL-LUC transactivation with CMV-driven ER3M-VP16 fusion proteins in HepG2 cells. It is filed as cell-based, human. Particulars: 10 nM ICI 182,780, no OHT. The source says: These fragments were digested with KpnI and BamHI and then purified from agarose gels. […] To create C-129, this ER fragment was digested with XbaI and KpnI and then cloned together with the DNA fragment containing 129 amino acids of VP16 into 5.9 kb vector generated by digestion of CMV-hER with XbaI and BamHI. The same strategy was adopted to create C-79 using the DNA fragment containing 79 amino acids of VP16. Therefore, the expression of these chimeras is driven by the same CMV promoter as that of ER-3M. […] The amplified PCR product was digested with NcoI and NotI. […] This fragment and the NcoI/NotI PCR fragment were then inserted together into the 4.3 kb vector, pGL3-ATL8/PAL-LUC, which was created by digesting ATL8/PAL-LUC completely with NcoI and partially with XbaI so that the luciferase gene was replaced by N-79.

The subject of another test is pS2 ERE probe. Nature of the test: EMSA (gel mobility shift), ER binding to pS2 ERE probe. Here is the method:
CHO—S cells (Life-Technologies; Grand Island, N.Y.) were transfected using Lipofectamine 2000 (Life-Technologies). Transfection was performed according to the manufacturer's instructions, except cells were grown in 6-well plates coated with 1 ml of 0.1 mg/mL polylysine for 24 hours at 37° C. prior to transfection. One μg of CMV-hERα and 3 μg of pTZ18U carrier DNA were used for each well; DNA:Lipofectamine 2000 was 1:3. 17β-estradiol was added to a final concentration of 10 nM 1 hour before harvest. […]
(§3) Gel mobility shift assays were performed essentially as described [Zhang, 1999 #38]. […] Free probe and protein-DNA complexes were quantitated using a phosphor imager and ImageQuant 5.0 (Molecular Dynamics, Inc., Sunnyvale, Calif.). […]
To compare binding of wild type hERα and the ER mutants to the EREs, protein titrations were performed. […] The ER:ERE complexes were then analyzed by EMSA. […]
(§4) FIG. 1 (Legend) A. Panel (i), Western blots of normalized whole cell extracts of wild type hERα and mutants from transfected CHO-S cells. […] The data were calculated by PhosphorImager analysis. […] D (iii) contains a graph of the percentage of the labeled pS2 PAL probe shifted calculated by PhosphorImager analysis of the data in D(i) and D(ii).

The test system of the next test is pS2 PAL probe. Kind of test: EMSA (gel mobility shift), ER binding to pS2 PAL probe. Here is the method:
as §1, §3, §4

In test [4] the test system is ATL2/PAL-LUC reporter in HepG2 cells. Nature of the test: MOX-dependent transactivation by wild-type and mutant ERs, transient transfection, luciferase reporter. It is filed as cell-based, human. Particulars: 10 nM MOX. (In general: In a reporter assay the amount or activity of a reporter protein is the signal.)
A further test deals with T1, wild type hERα (Homo sapiens, UniProt P03372, G400V).
T1 sequence (P03372 1-595 G400V): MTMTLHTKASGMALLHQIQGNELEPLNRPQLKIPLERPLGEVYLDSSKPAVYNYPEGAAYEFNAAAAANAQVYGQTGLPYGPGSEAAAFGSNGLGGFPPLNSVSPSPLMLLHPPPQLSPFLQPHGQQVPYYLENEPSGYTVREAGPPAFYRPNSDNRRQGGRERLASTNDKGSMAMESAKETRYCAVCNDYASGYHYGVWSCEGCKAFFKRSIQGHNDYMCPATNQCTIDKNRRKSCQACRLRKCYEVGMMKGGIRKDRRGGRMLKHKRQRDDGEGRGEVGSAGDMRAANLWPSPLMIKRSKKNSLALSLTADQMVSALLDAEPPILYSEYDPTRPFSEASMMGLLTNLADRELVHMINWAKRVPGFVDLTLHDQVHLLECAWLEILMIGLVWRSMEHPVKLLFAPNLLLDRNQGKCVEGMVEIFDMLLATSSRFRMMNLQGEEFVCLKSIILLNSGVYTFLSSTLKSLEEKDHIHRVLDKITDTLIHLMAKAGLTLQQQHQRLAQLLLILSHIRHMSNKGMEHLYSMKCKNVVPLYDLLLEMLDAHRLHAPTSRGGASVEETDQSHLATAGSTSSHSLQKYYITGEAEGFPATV
Nature of the test: Ligand-dependent luciferase reporter transactivation in transfected HepG2 cells. Particulars: for MOX-dependent increase in luciferase activity: ATL2/cERE-LUC, 10 nM MOX.

Procedure for wild type hERα: HepG2 human hepatoma cells were maintained in a humidified 5% CO2 incubator at 37° C. in Dulbecco's Modified Eagle's Medium (DMEM; Sigma; St. Louis, Mo.) supplemented with 10 % charcoal-dextran-stripped fetal bovine serum (CD-FBS; Atlanta Biologicals, Inc; Atlanta, Ga.), 50,000 U/l of penicillin, and 50 mg/liter streptomycin (Life Technologies, Inc.). MCF-7 cells were routinely maintained in DMEM/Nutrient Mixture F-12 (DMEM/F12) supplemented with 10% heat-inactived FBS, 50,000 U/l of penicillin, and 50 mg/l streptomycin. CHO-S cells were maintained in DMEM/F12 supplemented with 10% heat-inactivated FBS (CD-FBS when ERs were being expressed) or 10% CD-new born calf serum (CD-NBCS, when reporter activity by different ligands were measured), 29.2 mg/l L-glutamine (Sigma), and 50,000 U/l of penicillin and 50 mg/l streptomycin.
Transient transfections in HepG2 cells was accomplished using calcium phosphate co-precipitation (Ausubel et al., 1987). Briefly, cells were plated in 12-well microplates at a density of 1×10^5 cells/well. The next day, the medium was replaced, and 2–6 hours later, precipitated calcium phosphate:DNA co-crystals were added. After 12–16 hours, the cells were shocked for 3 minutes with 20% glycerol in Tris-buffered saline, pH 7.4. Fresh medium and (if any) hormones were added. For MCF-7 and 231 cells, transient transfection was carried out using the Tfx™-20 reagent (Promega; Madison, Wis.) according to the manufacturer's direction with minor changes. Briefly, 1×10^5 cells were plated in each well of 12-well microplates one day before transfection. A 1:3 ratio of DNA to lipid was used. The DMEM/F12 medium without serum was used as carrier for the DNA-lipid mixture. After 1 hour incubation with the DNA-lipid-DMEM/F12 at 37° C., the cells were transferred to fresh DMEM/F12 supplemented with 10% CD-FBS, 50,000 U/I of penicillin, 50 mg/l streptomycin and hormones. Transfection on CHO—S cells was described as above for the preparation of ERs extraction except the medium contained 10% CD-NBCS. The cells subjected to either transfection method were harvested 48 hours post-transfection. Reporter assays were performed by lysing the cells in situ with 250 μl of passive lysis buffer (Promega). Activity was determined using the dual luciferase assay protocol according to the manufacturer's directions (Promega) on a Monolight 2010 luminometer (Analytical Luminescence, San Diego, Calif.)
Transient transfections of HepG2 cells were carried out and luciferase activity determined.

“ER2: ERα DNA binding domain mutant, SEQ ID NO:12 (WGCKAFFKRSIARHNDY; Mutant DBD of ER)”: the “activation of transcription from native pS2 ERE compared with wild-type ER” value (shortened to “activation … compared with wild-type ER”) in test [1] is reported as “less effective”.
For the molecule “ER7.2: ERα DNA binding domain mutant, SEQ ID NO:18 (EGCKAFFKRSIQRHPRY; Mutant DBD of ER)”, the “binding to cERE and pS2 ERE DNA probes” value with cERE probe is “little or no binding”.
For the molecule “ER50.1: ERα DNA binding domain mutant, SEQ ID NO:22 (WSCKGFFKRSKQGHNDY; Mutant DBD of ER)”, the “binding to cERE and pS2 ERE DNA probes” value in the test with cERE probe is on record as “little or no binding”.
With “ER2.1: ERα DNA binding domain mutant, SEQ ID NO:16 (WSCKAFFKRSIAGGNDY; Mutant DBD of ER)”, in the test with cERE probe, the “binding to cERE and pS2 ERE DNA probes” value is “little or no binding”.
On to “ER4.3: ERα DNA binding domain mutant, SEQ ID NO:8 (WGCKAFFKRSIVRPTDY; Mutant DBD of ER)”, for which, in test [2], the “binding to, or transcription from, the Bcl2 and TGF α1 EREs” value was “no detectable binding to, or transcription from”. The “activation … compared with wild-type ER” value in test [1] was “more effectively than wild-type ER”.
Regarding “ER15.3: ERα DNA binding domain mutant, SEQ ID NO:20 (ESCKAFFKRSIGGHNYY; Mutant DBD of ER)”, the “binding to cERE and pS2 ERE DNA probes” value in the test with cERE probe is on record as “little or no binding”.
Turning to “ER3.1: ERα DNA binding domain mutant, SEQ ID NO:6 (WGCKAFFKRSINRHNSY; Mutant DBD of ER)”, the “activation … compared with wild-type ER” value in test [1] is on record as “less effective”.
In the case of `C[C@]12CC[C@@H]3c4ccc(O)cc4C[C@@H](CCCCCCCCC[S+]([O-])CCCC(F)(F)C(F)(F)F)[C@H]3[C@@H]1CC[C@@H]2O` (some centres unmarked) [ICI 182,780], the “effect on basal transactivation by the fusion proteins” value in test [3] is “decreased”.
On to “ER6.2: ERα DNA binding domain mutant, SEQ ID NO:10 (EGCKAFFKRSIARRLDY; Mutant DBD of ER)”, for which the “change in binding to pS2 ERE probe compared with cERE” value with pS2 ERE probe is given as “dramatic decrease in binding”. In the test with pS2 PAL probe, the “binding to pS2 PAL” value was “negligible binding”. Further, the “activation … compared with wild-type ER” value in test [1] was “less effective”. In test [4], the “ability to activate transcription of the pS2 PAL reporter” value is listed as “little or no ability to activate transcription”.
In the case of `C#C[C@]1(O)CC[C@H]2[C@@H]3CCc4cc(O)ccc4[C@H]3[C@@H](OC)C[C@@]21C` [MOX, moxestrol], the “transactivation level on two copies of pS2 PAL” value at wild type hERα (ATL2/PAL-LUC, 10 nM ligand) was “undetectable”. Further, the “MOX-dependent increase in luciferase activity” value at wild type hERα (0.75 ng expression plasmid) is 32 fold; at wild type hERα (2.5 ng expression plasmid) it was 41 fold.
Regarding “ER4: ERα DNA binding domain mutant, SEQ ID NO:14 (WGCKAFFKRSIARGNDY; Mutant DBD of ER)”, in test [1], the “activation … compared with wild-type ER” value was “more effectively than wild-type ER”.
In the case of “ER57.1: ERα DNA binding domain mutant, SEQ ID NO:24 (WSCKGFFKRSIKGVPTY; Mutant DBD of ER)”, in the test with cERE probe, the “binding to cERE and pS2 ERE DNA probes” value was “little or no binding”.
For the molecule “ER3M: ERα DNA binding domain mutant, residues 203–219 as SEQ ID NO:4 (WGCKAFFKRSIAGGNDY; Mutant DBD of ER)”, the “binding to, or transcription from, the Bcl2 and TGF α1 EREs” value in test [2] is on record as “no detectable binding to, or transcription from”. Besides, in test [1], the “activation … compared with wild-type ER” value is listed as “more effectively than wild-type ER”.
